Patent US9511086B2, “Method for improving immune system function by administering agents that inhibit DNA-dependent protein kinase-directed apoptosis” (The Board of Trustees of the Leland Stanford Junior …, priority 2010, dated 2016)

Columns and labels:
[1] = biological target: T1, checkpoint protein kinase 1 (Homo sapiens, UniProt O14757); settings: concentrations of up to 100 μM; cited from earlier work
T1 sequence (O14757 1-476): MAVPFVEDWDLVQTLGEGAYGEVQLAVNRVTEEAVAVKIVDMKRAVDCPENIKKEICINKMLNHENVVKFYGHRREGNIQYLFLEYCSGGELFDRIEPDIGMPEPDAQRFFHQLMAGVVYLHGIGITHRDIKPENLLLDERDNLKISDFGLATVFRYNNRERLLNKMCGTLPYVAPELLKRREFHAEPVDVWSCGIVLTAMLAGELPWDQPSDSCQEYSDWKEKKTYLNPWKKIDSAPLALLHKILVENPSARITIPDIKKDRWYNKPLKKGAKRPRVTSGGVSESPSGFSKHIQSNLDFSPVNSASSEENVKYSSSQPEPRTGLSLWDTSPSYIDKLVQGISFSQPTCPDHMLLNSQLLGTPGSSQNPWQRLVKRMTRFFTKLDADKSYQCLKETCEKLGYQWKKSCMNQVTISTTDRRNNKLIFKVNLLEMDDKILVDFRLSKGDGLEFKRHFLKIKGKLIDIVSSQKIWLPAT

[2] = biological target: cyclin-dependent kinase 2 (Homo sapiens, UniProt P24941); settings: concentrations of up to 100 μM; cited from earlier work
[3] = biological target: Rous sarcoma tyrosine kinase (Homo sapiens, UniProt P12931); settings: concentrations of up to 100 μM; cited from earlier work
Rous sarcoma tyrosine kinase, sequence (P12931 whole entry): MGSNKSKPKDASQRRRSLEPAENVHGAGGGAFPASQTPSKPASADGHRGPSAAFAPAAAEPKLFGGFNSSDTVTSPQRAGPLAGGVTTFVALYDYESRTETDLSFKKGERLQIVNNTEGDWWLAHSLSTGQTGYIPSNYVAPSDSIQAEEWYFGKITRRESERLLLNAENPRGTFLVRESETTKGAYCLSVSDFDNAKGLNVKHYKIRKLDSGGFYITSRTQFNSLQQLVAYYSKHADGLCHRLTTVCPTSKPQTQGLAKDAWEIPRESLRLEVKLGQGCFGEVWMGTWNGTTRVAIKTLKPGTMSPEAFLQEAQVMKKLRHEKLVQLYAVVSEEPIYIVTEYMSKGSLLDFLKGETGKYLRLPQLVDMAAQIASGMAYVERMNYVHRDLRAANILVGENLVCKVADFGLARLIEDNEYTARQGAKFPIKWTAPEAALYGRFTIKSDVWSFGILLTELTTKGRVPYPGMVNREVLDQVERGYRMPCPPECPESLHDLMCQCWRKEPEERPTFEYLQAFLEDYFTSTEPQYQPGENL

[4] = biological target: ATM (Homo sapiens, UniProt Q13315); settings: concentrations of up to 100 μM; cited from earlier work
ATM, sequence (Q13315 whole entry, species assumed): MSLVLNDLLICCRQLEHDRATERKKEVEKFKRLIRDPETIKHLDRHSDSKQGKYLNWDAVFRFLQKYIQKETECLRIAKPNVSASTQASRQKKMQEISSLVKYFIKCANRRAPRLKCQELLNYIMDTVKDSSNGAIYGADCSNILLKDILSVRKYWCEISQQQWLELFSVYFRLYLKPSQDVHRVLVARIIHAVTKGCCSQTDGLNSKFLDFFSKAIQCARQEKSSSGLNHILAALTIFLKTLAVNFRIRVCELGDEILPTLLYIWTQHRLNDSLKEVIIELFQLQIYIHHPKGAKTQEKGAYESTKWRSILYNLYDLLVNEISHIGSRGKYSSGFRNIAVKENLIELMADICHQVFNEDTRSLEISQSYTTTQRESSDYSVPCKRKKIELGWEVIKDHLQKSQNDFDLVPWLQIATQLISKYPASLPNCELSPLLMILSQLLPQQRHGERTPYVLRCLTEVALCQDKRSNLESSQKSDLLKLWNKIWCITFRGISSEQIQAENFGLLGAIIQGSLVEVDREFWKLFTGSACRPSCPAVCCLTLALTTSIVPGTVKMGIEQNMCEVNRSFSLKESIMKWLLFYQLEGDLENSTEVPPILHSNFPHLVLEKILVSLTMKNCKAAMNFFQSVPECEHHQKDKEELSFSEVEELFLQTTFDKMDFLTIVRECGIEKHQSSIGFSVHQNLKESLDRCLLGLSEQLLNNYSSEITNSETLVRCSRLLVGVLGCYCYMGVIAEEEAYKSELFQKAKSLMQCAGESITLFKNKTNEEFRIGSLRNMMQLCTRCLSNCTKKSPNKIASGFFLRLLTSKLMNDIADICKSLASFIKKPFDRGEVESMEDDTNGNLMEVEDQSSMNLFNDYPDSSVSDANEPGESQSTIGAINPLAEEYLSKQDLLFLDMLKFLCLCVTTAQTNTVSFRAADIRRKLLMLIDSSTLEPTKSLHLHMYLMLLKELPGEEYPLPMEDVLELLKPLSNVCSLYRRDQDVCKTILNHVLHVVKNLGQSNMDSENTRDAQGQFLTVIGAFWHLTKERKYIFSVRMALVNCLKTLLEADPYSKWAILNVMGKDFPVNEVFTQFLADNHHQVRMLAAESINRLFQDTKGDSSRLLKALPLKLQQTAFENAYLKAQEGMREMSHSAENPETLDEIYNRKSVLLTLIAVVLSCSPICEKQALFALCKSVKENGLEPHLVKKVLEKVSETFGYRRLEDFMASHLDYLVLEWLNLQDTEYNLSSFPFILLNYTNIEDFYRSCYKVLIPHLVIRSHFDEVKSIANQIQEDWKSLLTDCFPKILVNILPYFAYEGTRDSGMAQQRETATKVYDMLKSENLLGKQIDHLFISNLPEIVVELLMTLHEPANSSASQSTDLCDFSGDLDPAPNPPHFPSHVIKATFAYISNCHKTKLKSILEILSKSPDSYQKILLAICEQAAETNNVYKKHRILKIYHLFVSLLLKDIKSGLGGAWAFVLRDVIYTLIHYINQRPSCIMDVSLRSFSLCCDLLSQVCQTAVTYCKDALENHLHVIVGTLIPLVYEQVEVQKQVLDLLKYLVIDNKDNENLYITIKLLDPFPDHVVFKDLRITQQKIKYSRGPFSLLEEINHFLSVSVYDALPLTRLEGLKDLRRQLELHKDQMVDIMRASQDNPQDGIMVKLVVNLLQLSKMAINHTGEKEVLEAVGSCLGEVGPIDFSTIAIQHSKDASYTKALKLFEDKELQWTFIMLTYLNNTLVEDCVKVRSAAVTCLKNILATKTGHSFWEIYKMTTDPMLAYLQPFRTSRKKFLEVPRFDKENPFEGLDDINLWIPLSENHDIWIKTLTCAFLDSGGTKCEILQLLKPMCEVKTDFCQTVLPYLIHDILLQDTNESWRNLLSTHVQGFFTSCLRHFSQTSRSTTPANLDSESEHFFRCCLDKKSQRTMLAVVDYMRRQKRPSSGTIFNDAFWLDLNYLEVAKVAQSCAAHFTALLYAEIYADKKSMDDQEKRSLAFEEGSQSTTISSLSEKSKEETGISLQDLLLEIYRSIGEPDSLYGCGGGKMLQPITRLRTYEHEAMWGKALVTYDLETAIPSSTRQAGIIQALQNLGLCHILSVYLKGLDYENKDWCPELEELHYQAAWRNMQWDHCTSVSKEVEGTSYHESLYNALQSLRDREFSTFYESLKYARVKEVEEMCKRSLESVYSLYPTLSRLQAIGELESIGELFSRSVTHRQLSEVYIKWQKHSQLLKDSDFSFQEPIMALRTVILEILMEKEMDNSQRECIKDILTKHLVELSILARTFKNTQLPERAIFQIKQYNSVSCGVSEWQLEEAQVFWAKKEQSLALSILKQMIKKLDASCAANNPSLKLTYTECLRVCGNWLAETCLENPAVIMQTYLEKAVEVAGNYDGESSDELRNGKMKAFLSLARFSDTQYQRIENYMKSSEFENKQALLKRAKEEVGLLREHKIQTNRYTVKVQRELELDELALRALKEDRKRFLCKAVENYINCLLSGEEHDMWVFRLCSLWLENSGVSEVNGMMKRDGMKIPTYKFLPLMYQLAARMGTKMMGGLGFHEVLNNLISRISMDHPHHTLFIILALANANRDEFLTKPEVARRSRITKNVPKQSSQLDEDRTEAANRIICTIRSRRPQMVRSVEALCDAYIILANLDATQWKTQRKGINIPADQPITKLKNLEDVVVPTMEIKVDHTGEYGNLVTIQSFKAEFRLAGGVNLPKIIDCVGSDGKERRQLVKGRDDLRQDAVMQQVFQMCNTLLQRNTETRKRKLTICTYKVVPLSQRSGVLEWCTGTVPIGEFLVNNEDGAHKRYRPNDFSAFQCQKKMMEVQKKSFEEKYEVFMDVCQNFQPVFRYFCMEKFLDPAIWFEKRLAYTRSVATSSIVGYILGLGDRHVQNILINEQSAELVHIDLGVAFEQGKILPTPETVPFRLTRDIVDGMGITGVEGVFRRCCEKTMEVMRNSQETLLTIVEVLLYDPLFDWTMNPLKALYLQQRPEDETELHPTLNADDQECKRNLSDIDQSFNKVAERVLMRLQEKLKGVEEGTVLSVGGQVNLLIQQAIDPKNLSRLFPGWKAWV

[5] = tested on: CD4+CD45RO− T cells from RA patients; assay: T-cell apoptosis by flow cytometry staining for PI, RA T cells; assay type: cell-based, human
Method: FIG. 5. Inhibition of DNA-PKcs activity protects RA T cells from apoptosis. CD4+CD45RO− T cells were isolated from 6 control donors and 7 RA patients. Cells were maintained in culture without stimulation for 48 h and then were treated with the DNA-PKcs inhibitor IC86621 (50 nM, 100 nM) or vehicle for 24 h. Cells were harvested and (A) T-cell apoptosis was measured by flow cytometry staining for PI. Representative cytometric data from one patient and one control are shown. (B) Frequencies of PI-positive T-cells in the absence and presence of the DNA-PKcs inhibitor from 6 controls and 7 RA patients are presented as mean±SEM.
FIG. 6. Silencing of the DNA-PKcs gene reduces apoptosis in RA T cells. CD4+CD45RO− T cells were purified from 3 control donors and 3 RA patients and transfected with control or DNA-PKcs specific siRNA oligonucleotides by nucleofection. (A, B) Twenty-four hours after transfection, DNA-PKcs transcript levels were quantified by qPCR, and DNA-PKcs protein levels were detected by Western blotting. (C) T-cell apoptosis was analyzed by staining for PI. Representative data from one patient and one control are shown. (D) Cell apoptosis from 3 control and 3 RA samples are presented as mean±SEM.
FIG. 7. […] (A) CD4+CD45RO− T cells were isolated and cultured in the presence of the indicated enzyme inhibitors for 24 h. T-cell apoptosis was quantified through flow cytometry staining for PI. (B) Cells were maintained in culture without stimulation for 48 h and then were treated with the JNK inhibitor. PI-positive T cells were measured after 24 h of treatment with the JNK inhibitor II (5 μM or 10 μM) or vehicle. Frequencies of apoptotic T cells from 6 controls and 7 RA patients are presented as mean±SEM. (C) Representative flow cytometry results from one control and one patient. (D) Flow cytometry analysis of phosphorylated JNK levels in control and RA T cells after culturing without mitogenic stimulation for 72 h. Representative data from one patient and one control are presented. (E) Expression of pJNK protein in n=6 RA and n=6 control samples at 72 h is given as MFI of FITC-pJNK. (F) Flow cytometry analysis of phosphorylated JNK levels in freshly isolated control and RA naïve CD4 T cells. Expression of pJNK protein in n=7 RA and n=7 control samples at day 0 is given as MFI of FITC-pJNK. (G) Quantification of JNK and pJNK protein expression at 72 h by Western blotting. (H) Relative expression levels of pJNK were quantified by measuring band intensities adjusted by total JNK in 6 RA patients and 6 control donors. Data are presented as mean±SEM. (I) CD4+CD45RO− T cells were purified from RA donors and transfected with control or DNA-PKcs-specific siRNA oligonucleotides by nucleofection. Twenty-four hours after transfection, DNA-PKcs and pJNK protein levels were detected by Western blotting. A representative blot from three independent experiments is shown.
Peripheral blood mononuclear cells (PBMC) were separated from whole blood with Lymphocyte Separation Medium (Mediatech Inc., Herndon, Va.). CD45RO^− cells were negatively selected with microbeads (Miltenyi Biotec Inc., Auburn, Calif.), and the naïve CD4^+CD45RO^− population was subsequently selected with CD4 microbeads (autoMACS, Miltenyi Biotec Inc.).
CD4^+CD45RO^− T cells were maintained in a resting state in DMEM without mitogenic stimulation for three days. In selected experiments, T-cell homeostatic cytokines were supplemented. To test for the role of signaling networks in mediating apoptosis, the following inhibitors were added to the cultures at day 0: DNA-PKcs inhibitor IC86621 (Sigma-Aldrich, St. Louis, Mo.), JNK inhibitor II (Calbiochem, La Jolla, Calif.), p38 inhibitor (Alexis Biochemicals, Plymouth Meeting, Pa., SB203580), CaM inhibitor (Calbiochem), NE-KB inhibitor (Calbiochem), and AKT inhibitor (Calbiochem). […]

[6] = tested on: protein kinase C; settings: concentrations of up to 100 μM; cited from earlier work
[7] = biological target: aurora-related kinase 2 (Homo sapiens, UniProt Q96GD4); settings: concentrations of up to 100 μM; cited from earlier work
aurora-related kinase 2, sequence (Q96GD4 whole entry): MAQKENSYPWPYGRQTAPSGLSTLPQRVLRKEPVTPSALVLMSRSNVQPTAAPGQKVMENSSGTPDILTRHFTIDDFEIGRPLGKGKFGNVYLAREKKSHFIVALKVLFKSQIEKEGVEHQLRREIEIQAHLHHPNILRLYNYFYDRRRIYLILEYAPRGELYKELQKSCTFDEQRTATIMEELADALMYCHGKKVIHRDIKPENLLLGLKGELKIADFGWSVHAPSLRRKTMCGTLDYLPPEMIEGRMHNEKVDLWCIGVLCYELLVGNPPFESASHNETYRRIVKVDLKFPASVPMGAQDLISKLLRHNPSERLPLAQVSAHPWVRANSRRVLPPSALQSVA

[8] = tested on: casein kinase 1; settings: concentrations of up to 100 μM; cited from earlier work
[9] = tested on: protein kinase A; settings: concentrations of up to 100 μM; cited from earlier work

CC(=O)c1ccc(N2CCOCC2)cc1O [IC86621, 1-(2-hydroxy-4-morpholin-4-ylphenyl)ethanone]
activity against checkpoint protein kinase 1 [1]: neither activity | activity against cyclin-dependent kinase 2 [2]: neither activity | activity against Rous sarcoma tyrosine kinase [3]: neither activity | activity against ATM [4]: neither activity | protection of RA T cells from apoptosis, dose dependence ([5]; 50 nM, 100 nM): dose-dependent | doses at which T cell survival was improved ([5]; RA T cells): 50 to 100 nM | survival rates among RA T cells ([5]; RA T cells, 48 h culture then inhibitor (50 nM, 100 nM) for 24 h, PI-positive cells): improved survival rates | dose sufficient to normalize apoptotic susceptibility (PI-positive cells reduced to levels of control T cells) ([5]; RA T cells, 72 h ex vivo culture): 100 nM | activity against protein kinase C [6]: neither activity | activity against aurora-related kinase 2 [7]: neither activity | activity against casein kinase 1 [8]: neither activity | activity against protein kinase A [9]: neither activity
